According to patent publication US10226508B2, “Treatment of chronic ulcers” (Promore Pharma AB, priority 2013, dated 2019):
“Also recorded” adds a separate entry of the source. Read-outs that look alike come from different tables or passages of the source.

Key:
[1] = test system: HTH VLUs (hard-to-heal venous leg ulcers); assay: Double-blind, randomised, placebo-controlled Phase I/II safety and pilot-dose response study of LL-37 in HTH VLUs; assay type: in vivo, human; details: for Estimated healing rate constant (cm^2/day) Mean (95% C.I.): 25 μL/cm^2 topical every third day, 4 weeks, exponential decay model, placebo 0.007
Description: A double-blind, randomised, placebo-controlled, Phase I/II safety and pilot-dose response study was conducted on human subjects. The first subject was enrolled in August 2012 and the last subject completed in April 2013.
Study subjects comprised either male subjects of at least 18 years of age, or post-menopausal or clinically sterile women, with VLUs or combined venous-arterial ulcers with a predominant venous component.
Target wounds with an area greater than 30 cm^2 and less than 2 cm^2 were excluded initially. However, in order to increase the inclusion rate and decrease the total study time, criteria were amended after randomisation of 21 subjects, to exclude areas greater than 40 cm^2 and less than 1 cm^2. If an eligible subject had more than one wound satisfying the entry criteria, the investigator identified the wound with the most appropriate size, shape and localisation as target wound. Only one wound per subject was treated in the study.
During the 3-week run-in period, subjects received, every third day (±1) and not more than two times per week, six applications (in total) of a placebo preparation (see below) in combination with standard compression bandaging (as defined by the Swedish MPA), comprising elastic bandaging and appropriate dressing to control wound exudation.
If the ulcerative area decrease was greater than between 7% and 13% (depending on size) per week relative to the start of the run-in period, the ulcer was not defined as HTH for the purposes of this study. In such cases, subjects were excluded from the study and the outcome was recorded as screening failure.
After a run-in period, 34 eligible subjects underwent baseline assessments before randomisation to receive active treatment (one of three treatment strengths) or placebo.
Following the above run-in period, a 4-week treatment period was initiated, including 8 visits, an end-of-treatment visit 3 days (±1 day) after the last treatment, and a follow-up visit after an additional 4 weeks (±1 to 7 days).
Subjects were randomised into four treatment groups to receive LL-37 (one of three alternative strengths), or placebo.
Wound bed preparation prior to treatment included debridement of non-viable tissue, treatment of clinical infection and selection of the most appropriate dressing (see below). The wound was cleaned using tap water, gently dried with a gauze pad and, if necessary, curettage was applied prior to application of the trial product or placebo.
0.7 mL of a sterile concentrate of LL-37 in water at concentrations of 2.5, 8 or 16 mg of LL-37 per mL was provided in sealed glass vials (APL, Umeå, Sweden), which were stored prior to the trial at between 2 and 8° C. Immediately before application to the wound, this was diluted with […] of a viscous diluent solution comprising 13.1% (w/w) of polyvinyl alcohol in acetate buffered saline (APL AB) to give final concentrations of either 0.5, 1.6 or 3.2 mg/mL, respectively. Placebo comprised exactly the same solution, but without LL-37 present.
The diluted viscous liquid solution of active treatment or placebo was applied topically at an amount of 25 μL/cm^2 with a 1 mL graded syringe at the centre of the cleansed and dried ulcer, and distributed evenly over the entire ulcer area using the rounded head of the syringe plunger that had been used in mixing the study drug.
After a 5-minute wait (to prevent LL-37 or placebo from being absorbed by the dressing material), the above procedure was followed by application of a dressing and a compression bandage.
The above procedure was repeated every third day (±1) over a 4 week treatment period, not more than two times per week, representing a total of eight applications.
The study assessed the rate of wound healing, pain at wound site both at the time of dressing and over the previous 24 hours using Visual Analogue Scale (VAS). […]

[2] = test system: angiogenesis; details: synthetic LL-37, subcutaneous injection; Koczulla et al 2003; cited from earlier work
[3] = test system: acute wounds; details: synthetic LL-37, repeated topical administration in acute wounds; cited from earlier work
[4] = test system: wound healing; details: topical treatment; mice treated with a corticosteroid; Ramos et al 2011; cited from earlier work
[5] = test system: acute wounds of diabetic mice; details: cited from earlier work

Question: Which results are given for LL-37?
Answer: wound healing response (conclusion) ([1]; LL-37 0.5 mg/mL (13 μg per cm^2 of wound area) every third day): marked and significant improvement in wound healing; Estimated healing rate constant (cm^2/day) Mean (95% C.I.) ([1]; LL-37 0.5 mg/mL): 0.039 cm^2/day; broken stick analysis: reduction in wound area after randomisation versus run-in ([1]; LL-37 0.5 mg/mL, p<0.001, FIG. 1): statistically significant improved healing; wound healing response (conclusion) ([1]; LL-37 1.6 mg/mL (40 μg per cm^2 of wound area) every third day): marked and significant improvement in wound healing; Estimated healing rate constant (cm^2/day) Mean (95% C.I.) ([1]; LL-37 1.6 mg/mL): 0.019 cm^2/day; mean reduction in wound area ([1]; LL-37 1.6 mg/mL, from randomization to the end of the study): 5.29 cm^2; broken stick analysis: reduction in wound area after randomisation versus run-in ([1]; LL-37 1.6 mg/mL, p=0.011, FIG. 1): statistically significant improved healing; clinical benefit in chronic ulcers ([1]; LL-37 3.2 mg/mL, 80 μg/cm^2 every third day (26.7 μg/cm^2 for each day)): do not effectively treat chronic ulcers; also recorded: no clinical benefit; Estimated healing rate constant (cm^2/day) Mean (95% C.I.) ([1]; LL-37 3.2 mg/mL): 0.004 cm^2/day; Wound Area (cm^2), Mean ± S.D ([1]; Visit 1 (Screening), before treatment, LL-37 0.5 mg/mL group (N = 8)): 4.59 ± 2.024 cm^2; Wound Area (cm^2), Mean ± S.D ([1]; Visit 1 (Screening), before treatment, LL-37 1.6 mg/mL group (N = 9)): 7.84 ± 4.789 cm^2; Wound Area (cm^2), Mean ± S.D ([1]; Visit 1 (Screening), before treatment, LL-37 3.2 mg/mL group (N = 8)): 8.41 ± 6.450 cm^2; Wound Area (cm^2), Mean ± S.D ([1]; Visit 3 (placebo run-in), LL-37 0.5 mg/mL group (N = 8)): 4.39 ± 1.995 cm^2; Wound Area (cm^2), Mean ± S.D ([1]; Visit 3 (placebo run-in), LL-37 1.6 mg/mL group (N = 9)): 8.14 ± 4.997 cm^2; Wound Area (cm^2), Mean ± S.D ([1]; Visit 3 (placebo run-in), LL-37 3.2 mg/mL group (N = 8)): 7.83 ± 6.163 cm^2; Wound Area (cm^2), Mean ± S.D ([1]; Visit 6 (Randomisation), baseline, LL-37 0.5 mg/mL group (N = 8)): 5.11 ± 1.732 cm^2; Wound Area (cm^2), Mean ± S.D ([1]; Visit 6 (Randomisation), baseline, LL-37 1.6 mg/mL group (N = 9)): 7.69 ± 4.072 cm^2; Wound Area (cm^2), Mean ± S.D ([1]; Visit 6 (Randomisation), baseline, LL-37 3.2 mg/mL group (N = 8)): 8.50 ± 6.919 cm^2; Wound Area (cm^2), Mean ± S.D ([1]; Visit 8, LL-37 0.5 mg/mL (N = 8)): 3.89 ± 1.329 cm^2; Wound Area (cm^2), Mean ± S.D ([1]; Visit 8, LL-37 1.6 mg/mL (N = 9)): 5.83 ± 2.156 cm^2; Wound Area (cm^2), Mean ± S.D ([1]; Visit 8, LL-37 3.2 mg/mL (N = 8)): 7.95 ± 6.270 cm^2; Wound Area (cm^2), Mean ± S.D ([1]; Visit 10, LL-37 0.5 mg/mL (N = 8)): 3.18 ± 1.549 cm^2; Wound Area (cm^2), Mean ± S.D ([1]; Visit 10, LL-37 1.6 mg/mL (N = 9)): 5.34 ± 1.943 cm^2; Wound Area (cm^2), Mean ± S.D ([1]; Visit 10, LL-37 3.2 mg/mL (N = 8)): 7.03 ± 5.063 cm^2; Wound Area (cm^2), Mean ± S.D ([1]; Visit 12, LL-37 0.5 mg/mL (N = 8)): 2.26 ± 1.061 cm^2; Wound Area (cm^2), Mean ± S.D ([1]; Visit 12, LL-37 1.6 mg/mL (N = 9)): 4.59 ± 2.266 cm^2; Wound Area (cm^2), Mean ± S.D ([1]; Visit 12, LL-37 3.2 mg/mL (N = 8)): 5.93 ± 5.317 cm^2; Wound Area (cm^2), Mean ± S.D ([1]; Visit 14, LL-37 0.5 mg/mL (N = 8)): 1.93 ± 1.262 cm^2; Wound Area (cm^2), Mean ± S.D ([1]; Visit 14, LL-37 1.6 mg/mL (N = 9)): 3.86 ± 3.029 cm^2; Wound Area (cm^2), Mean ± S.D ([1]; Visit 14, LL-37 3.2 mg/mL (N = 8)): 5.89 ± 4.784 cm^2; Wound Area (cm^2), Mean ± S.D ([1]; Visit 15 (End of Treatment), LL-37 0.5 mg/mL (N = 8)): 1.98 ± 1.276 cm^2; Wound Area (cm^2), Mean ± S.D ([1]; Visit 15 (End of Treatment), LL-37 1.6 mg/mL (N = 9)): 3.34 ± 3.166 cm^2; Wound Area (cm^2), Mean ± S.D ([1]; Visit 15 (End of Treatment), LL-37 3.2 mg/mL (N = 8)): 5.85 ± 4.648 cm^2; Wound Area (cm^2), Mean ± S.D ([1]; Visit 16 (End of Study, follow-up approx. 4 weeks after last treatment), LL-37 0.5 mg/mL (N = 8)): 1.33 ± 1.209 cm^2; Wound Area (cm^2), Mean ± S.D ([1]; Visit 16 (End of Study, follow-up approx. 4 weeks after last treatment), LL-37 1.6 mg/mL (N = 9)): 2.40 ± 3.269 cm^2; Wound Area (cm^2), Mean ± S.D ([1]; Visit 16 (End of Study, follow-up approx. 4 weeks after last treatment), LL-37 3.2 mg/mL (N = 8)): 6.19 ± 4.770 cm^2; difference of estimated healing rate versus the placebo group ([1]; highest dose, LL-37 3.2 mg/mL): no statistically significant difference; broken stick analysis: post-randomisation rate versus run-in ([1]; highest dose, LL-37 3.2 mg/mL, FIG. 1): No significant difference; difference of healing rate constant (exponential decay model) versus the placebo group ([1]; intermediate dose, LL-37 1.6 mg/mL, p=0.088): 3 fold; difference of healing rate constant (exponential decay model) versus the placebo group ([1]; lowest dose, LL-37 0.5 mg/mL, p=0.003): 6 fold; effect on angiogenesis [2]: stimulates angiogenesis; effect on inflammatory cells [3]: attracts inflammatory cells to the surrounding tissue; effect on wound healing [4]: stimulated wound healing; effect in acute wounds of diabetic mice ([5]; one study, Carretero et al 2008): beneficial effect; effect in acute wounds of diabetic mice ([5]; other studies, Steinstraesser et al 2012): failed to show an effect
